In patent publication US20130072473A1, “COMPOUNDS FOR TREATING PROTEIN FOLDING DISORDERS” (PROTEOSTASIS THERAPEUTICS, INC., priority 2011, published 2013):

Molecular target: T1, ΔF508 expressing CFBE410- lung cells (Homo sapiens, UniProt P13569, DEL508-508)
T1 construct: host or cells: CFBE41o- lung cells
Test: CFTR folding and trafficking assay (immunoblot of band B and C glycoforms)
Type: cell-based
Details: CFBE410- lung cells cultured in presence of compound versus DMSO; FIG. 1
Experimental: CFTR transport assays. Either ΔF508 expressing CFBE410- lung cells were cultured in the presence or absence of reagent in 12 well Sarstedt dishes, harvested, lysed and the processing of CFTR from the band B to the band C glycoform detected by SDS-PAGE and immunoblotting using either monoclonal 3G11 or M3A7.
Quantitation of CFTR glycoforms: Immunoblot exposures were selected to allow visualization of CFTR recovery under identical protein loads in same SDS-PAGE for all treatments. Given the dynamic range, quantitation of the band B and C glycoforms was made by analysis of band intensities that were in the linear range. The x-ray films were exposed for increasing time and the different exposures were quantified using a FluroChemSP (Alpha Inotech) densitometer/software package. Where band B and C were quantified from different exposures, an internal reference was used to normalize the signal intensity. This method is described in more detail in Hutt et al. (2010).^16 Reduced histone deacetylase 7 activity restores function to misfolded CFTR in cystic fibrosis, Nature Chemical Biology (2010), 6(1), 25-33, the contents of which are expressly incorporated by reference herein.

T1 sequence (P13569 with tags, fused parts or gaps DEL508-508): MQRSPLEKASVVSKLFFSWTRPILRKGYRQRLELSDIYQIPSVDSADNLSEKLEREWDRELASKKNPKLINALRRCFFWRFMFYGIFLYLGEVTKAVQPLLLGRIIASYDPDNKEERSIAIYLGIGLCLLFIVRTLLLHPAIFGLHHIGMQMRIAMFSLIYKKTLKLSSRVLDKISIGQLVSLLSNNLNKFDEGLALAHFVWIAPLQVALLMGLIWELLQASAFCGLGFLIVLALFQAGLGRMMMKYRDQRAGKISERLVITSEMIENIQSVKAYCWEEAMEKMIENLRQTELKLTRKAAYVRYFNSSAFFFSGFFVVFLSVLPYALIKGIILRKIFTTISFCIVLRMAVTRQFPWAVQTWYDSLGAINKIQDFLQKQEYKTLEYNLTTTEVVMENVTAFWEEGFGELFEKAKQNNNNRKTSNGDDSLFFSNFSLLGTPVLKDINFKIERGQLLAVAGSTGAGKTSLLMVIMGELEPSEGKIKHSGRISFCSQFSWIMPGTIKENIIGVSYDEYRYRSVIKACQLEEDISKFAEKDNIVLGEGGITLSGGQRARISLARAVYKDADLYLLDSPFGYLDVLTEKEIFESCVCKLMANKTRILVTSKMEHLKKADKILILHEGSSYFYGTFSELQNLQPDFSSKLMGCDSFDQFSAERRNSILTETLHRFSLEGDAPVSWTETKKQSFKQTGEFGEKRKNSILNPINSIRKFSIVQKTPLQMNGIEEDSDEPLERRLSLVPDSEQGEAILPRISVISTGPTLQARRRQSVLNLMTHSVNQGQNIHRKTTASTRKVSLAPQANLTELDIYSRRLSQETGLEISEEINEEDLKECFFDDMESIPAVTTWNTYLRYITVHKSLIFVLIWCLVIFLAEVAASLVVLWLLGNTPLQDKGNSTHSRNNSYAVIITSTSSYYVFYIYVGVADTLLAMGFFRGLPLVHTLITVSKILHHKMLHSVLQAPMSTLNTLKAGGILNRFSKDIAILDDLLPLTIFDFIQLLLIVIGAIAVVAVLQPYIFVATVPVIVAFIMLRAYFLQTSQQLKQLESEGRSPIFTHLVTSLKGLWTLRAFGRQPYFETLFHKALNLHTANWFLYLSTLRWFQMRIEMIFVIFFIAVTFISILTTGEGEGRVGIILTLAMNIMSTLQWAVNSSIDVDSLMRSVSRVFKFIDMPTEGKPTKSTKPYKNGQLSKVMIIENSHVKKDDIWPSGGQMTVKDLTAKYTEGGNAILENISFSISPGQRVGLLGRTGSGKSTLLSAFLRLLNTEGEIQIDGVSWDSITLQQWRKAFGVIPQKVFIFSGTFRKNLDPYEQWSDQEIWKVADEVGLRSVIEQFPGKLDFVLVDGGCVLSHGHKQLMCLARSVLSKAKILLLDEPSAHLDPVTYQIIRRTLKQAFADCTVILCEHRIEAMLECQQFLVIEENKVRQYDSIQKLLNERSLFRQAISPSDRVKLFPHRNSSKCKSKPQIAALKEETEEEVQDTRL

- levels of CFTR band B and C by immunoblot: enhanced levels of band B and C
SMILES: CCN1CCc2c(sc(NC(C)=O)c2-c2nc3ccccc3s2)C1 [Example 2, N-(3-(benzo[d]thiazol-2-yl)-6-ethyl-4,5,6,7-tetrahydrothieno[2,3-c]pyridin-2-yl)acetamide]
